Measurements reported in patent US20070066587A1, “Substituted azetidine compounds, their preparation and use as medicaments” (LABORATORIOS DEL DR. ESTEVE S.A, priority 2004, published 2007).

Assays:
Assay type in all cases: in vivo
Male NMRI mice [1] = assay: Mouse tetrad model, hypothermia, agonistic effect; conditions: 5 mg/kg i.v., 20 minutes after injection
From the text: (§1) Substances with affinity for cannabinoid receptors are known to produce a wide range of pharmacological effects. It is also known that intravenous administration of a substance with affinity for cannabinoid receptors in mice produces analgesia, hypothermia, sedation and catalepsy. Individually, none of these effects can be considered as proof that a tested substance has affinity for cannabinoid-receptors, since all of these effects are common for various classes of centrally active agents. However, substances, which show all of these effects, i.e. substances that are active in this so-called tetrad model are considered to have affinity for the cannabinoid receptors. It has further been shown that cannabinoid receptor antagonists are higly effective in blocking the effects of a cannabinoid agonist in the mouse tetrad model.
(§2) The tetrad model is described, for example, in the publication of A. C. Howlett et al, International Union of Pharmacology XXVII. Classification of Cannabinoid Receptors, Pharmacol Rev 54, 161-202, 2002 and David R. Compton et al., “In-vivo Characterization of a Specific Cannabinoid Receptor Antagonist (SR141716A): Inhibition of Tetrahydrocannbinol-induced Responses and Apparent Agonist Activity”, J. Pharmacol. Exp. Ther. 277 , 2, 586-594, 1996. The corresponding parts of the description are hereby incorporated by reference.
(§3) Male NMRI mice with a weight of 20-30 g (Harlan, Barcelona, Spain) are used in all of the following experiments.
(§4) Before testing in the behavioral procedures given below, mice are acclimatized to the experimental setting. Pre-Treatment control values are determined for analgesia hot plate latency (in seconds), rectal temperature, sedation and catalepsy.
(§5) In order to determine the agonistic activty of the substance to be tested, the mice are injected intravenously with the substance to be tested or the vehicle alone. 15 minutes after injection, latency in hot plate analgesia is measured. Rectal temperature, sedation and catalepsy are measured 20 minutes after injection.
Hypothermia is determined according to the method described in David R. Compton et al. “In-vivo Characterization of a Specific Cannabinoid Receptor Antagonist (SR141716A) Inhibition of Tetrahydrocannbinol-induced Responses and Apparent Agonist Activity”, J. Pharmacol Exp Ther. 277, 2, 586-594, 1996. The respective description is hereby incorporated by reference and forms part of the present disclosure.
The base-line rectal temperatures are determined with a thermometer (Yello Springs Instruments Co., Panlabs) and a thermistor probe inserted to 25 mm before the administration of the substance to be tested. Rectal temperature is again measured 20 minutes after the administration of the substances to be tested. The temperature difference is calculated for each animal, whereby differences of ≧−2° C. are considered to represent activity.

Male NMRI mice [2] = assay: Mouse tetrad model, hot plate analgesia, agonistic effect; conditions: 5 mg/kg i.v., 15 minutes after injection
From the text: as §1
(§6) The tetrad model is described, for example, in the publication of A. C. Howlett et al, International Union of Pharmacology XXVII. […]
as §4, §5
The hot plate analgesia is determined according to the method described in Woolfe D. et al. “The evaluation of analgesic action of pethidine hydrochloride (Demerol)”, J. Pharmacol. Exp. Ther. 80, 300-307, 1944. […]
The mice are placed on a hot plate (Harvard Analgesimeter) at 55±0.5° C. until they show a painful sensation by licking their paws or jumping and the time for these sensations to occur is recorded. This reading is considered the basal value (B). […]
The degree of analgesia is calculated from the formula: % MPE of Analgesia=(PT-B)/(PC-B)×100 MPE=Maximum possible effect.

Male NMRI mice [3] = assay: Mouse tetrad model, catalepsy, agonistic effect; conditions: 5 mg/kg i.v., 20 minutes after injection
From the text: as §1, §2, §3, §4, §5
Catalepsy is determined according to the method described in Alpermann H. G. et al. “Pharmacological effets of Hoe 249: A new potential antidepressant”, Drugs Dev. Res. 25, 267-282. 1992. The respective description is hereby incorporated by reference and forms part of the present disclosure.
The cataleptic effect of the substance to be tested is evaluated according to the duration of catalepsy, whereby the animals are placed head downwards with their kinlegs upon the top of the wooden block.
The chosen scoring system is:
The percentage of catalepsy is determined according ot the following formula: % Catalepsy=arithmetic mean/6×100

Male NMRI mice [4] = assay: Mouse tetrad model, sedation, agonistic effect; conditions: 5 mg/kg i.v., 20 minutes after injection
From the text: as §1, §2, §3, §4, §5
Determination of Sedation and Ataxia
Sedation and ataxia is determined according to the method described in Desmet L. K. C. et al. “Anticonvulsive properties of Cinarizine and Flunarizine in Rats and Mice”, Arzneim.-Forsch. (Frug Res) 25, 9, 1975. The respective description is hereby incorporated by reference and forms part of the present disclosure.
The chosen scoring system is
2: obvious calmness and quiet;
prior to as well as after treatment.
(§7) The percentage of sedation is determined according to the formula: % of sedation=arithmetic mean/3×100

Male NMRI mice [5] = assay: Mouse tetrad model, sedation, antagonistic effect against Win 55212-2; conditions: 5 mg/kg i.v. prior to Win 55212-2 1.25 mg/kg i.v.
From the text: as §1, with “It has further been shown that cannabinoid receptor antagonists are higly effective in blocking the effects of a cannabinoid agonist in the mouse tetrad model.” left out
as §4
In order to determine the antagonistic activity the identical procedure is used as for the determination of the agonistic effects, but with the difference that the substance to be evaluated for its antagonistic activity is injectected 5 minutes before the intravenous injection of 1.25 mg/kg Win-55,212 a known cannabinoid-receptor agonist. […]
as §7

Male NMRI mice [6] = assay: Mouse tetrad model, hypothermia, antagonistic effect against Win 55212-2; conditions: 5 mg/kg i.v. prior to Win 55212-2 1.25 mg/kg i.v.
From the text: as §1, §6, §4
In order to determine the antagonistic activity the identical procedure is used as for the determination of the agonistic effects, but with the difference that the substance to be evaluated for its antagonistic activity is injectected 5 minutes before the intravenous injection of 1.25 mg/kg Win-55,212 a known cannabinoid-receptor agonist.
Hypothermia is determined according to the method described in David R. Compton et al. “In-vivo Characterization of a Specific Cannabinoid Receptor Antagonist (SR141716A) Inhibition of Tetrahydrocannbinol-induced Responses and Apparent Agonist Activity”, J. Pharmacol Exp Ther. 277, 2, 586-594, 1996. […]
The base-line rectal temperatures are determined with a thermometer (Yello Springs Instruments Co., Panlabs) and a thermistor probe inserted to 25 mm before the administration of the substance to be tested. […]

| Compound | Agonistic effect B: Hypothermia (Male NMRI mice [1]) | Agonistic effect A: Hot-Plate test (Male NMRI mice [2]) | Agonistic effect C: Catalepsy (Male NMRI mice [3]) | Agonistic effect D: Sedation (Male NMRI mice [4]) | Antagonistic Effect D: Sedation (Male NMRI mice [5]) | Antagonistic Effect B: Hypothermia (Male NMRI mice [6]) |
| --- | --- | --- | --- | --- | --- | --- |
| C[C@H]1[C@H](NS(=O)(=O)c2cccs2)CN1C(c1ccc(Cl)cc1)c1ccc(Cl)cc1 [Example 6, Thiophene-2-sulfonic acid {(2S,3R)-1-[bis-(4-chloro-phenyl)-methyl]-2-methyl-azetidin-3-yl}-amide] | 0 | 0 | 0 | 0 | – | – |
| C[C@@H]1[C@@H](OS(=O)(=O)c2ccc(F)cc2)CN1C(c1ccc(Cl)cc1)c1ccc(Cl)cc1 (relative stereo) [Example 1, 4-Fluoro-benzenesulfonic acid 1-[trans-bis-(4-chloro-phenyl)-methyl]-2-methyl-azetidin-3-yl ester] | 0 | 5 | 0 | 0 | 20 | 100 |
| C[C@@H]1[C@@H](NS(=O)(=O)c2cccc3nsnc23)CN1C(c1ccc(Cl)cc1)c1ccc(Cl)cc1 (relative stereo) [Example 15, 2,1,3-Benzothiadiazole-4-sulfonic acid {trans-1-[bis-(4-chloro-phenyl)-methyl]-2-methyl-azetidin-3-yl}-amide] | 0 | – | 0 | 0 | – | 100 |
| C[C@@H]1[C@@H](NS(=O)(=O)c2ccc(S(C)(=O)=O)cc2)CN1C(c1ccc(Cl)cc1)c1ccc(Cl)cc1 (relative stereo) [Example 14, N-{trans-1-[Bis-(4-chloro-phenyl)-methyl]-2-methyl-azetidin-3-yl}-4-methylsulfonyl-benzenesulfonamide] | 0 | – | 0 | 0 | 9 | – |
| C[C@H]1[C@H](NS(=O)(=O)c2ccc(F)cc2)CN1C(c1ccc(Cl)cc1)c1ccc(Cl)cc1 [Example 5, N-{(2S,3R)-1-[Bis-(4-chloro-phenyl)-methyl]-2-methyl-azetidin-3-yl}-4-fluoro-benzenesulfonamide] | 0 | 2 | 0 | 0 | – | 100 |
